Test results taken from publication PMC7155171, “Probing the Open Global Health Chemical Diversity Library for Multistage-Active Starting Points for Next-Generation Antimalarials” (ACS Infectious Diseases, 2020).
Read-outs that look alike come from different tables or passages of the source.

Tested on: P. falciparum Dd2 (PfLuc) line expressing firefly luciferase, asexual blood stage
Assay: microbe, parasite or virus in culture
Type: cell-based, Plasmodium falciparum
Details: Plasmodium falciparum
[1] = DD2, 8-pt dose response, 96hr, read-out: P. falciparum Luciferase ABS 8-pt Reconfirmation Dose Response (96hr): IC50
[2] = DD2, 8-pt dose response, 96hr, read-out: P. falciparum Luciferase ABS 8-pt Reconfirmation Dose Response (96hr): Maximum inhibition (%)
[3] = DD2, read-out: P. falciparum Luciferase ABS 11-pt Reconfirmation Dose Response (48hr): IC50, 11-pt dose response, 48hr
[4] = DD2, 11-pt dose response, 48hr, read-out: P. falciparum Luciferase ABS 11-pt Reconfirmation Dose Response (48hr): Maximum inhibition (%)
[5] = DD2, 11-pt dose response, 96hr, read-out: P. falciparum Luciferase ABS 11-pt Reconfirmation Dose Response (96hr): IC50
[6] = DD2, 11-pt dose response, 96hr, read-out: P. falciparum Luciferase ABS 11-pt Reconfirmation Dose Response (96hr): Maximum inhibition (%)
[7] = DD2, 8-pt dose response, 96hr, read-out: CDD P. falciparum Luciferase ABS 8-pt Reconfirmation Dose Response (96hr): IC50
[8] = DD2, 8-pt dose response, 96hr, read-out: CDD P. falciparum Luciferase ABS 8-pt Reconfirmation Dose Response (96hr): Maximum inhibition (%)

Compound	IC50 [1] [µM]	Emax [2] [%]	also measured
Cn1cc(CN2CCCC(CCc3ccc(F)cc3)C2)cn1 (stereo not shown) [DDD01246631]	1.75	84.6	–
CC(C)(C)n1cc(C2=CCN(CCN3CCCCCC3)CC2)cn1 [DDD01248990]	1.53	78.1	–
COc1ccc2[nH]c(CNc3cc(C4CCNCC4)nc(C)n3)cc2c1 [DDD01249030]	1.88	88	–
CN1CCC(N(C)C[C@H]2CC[C@@H](Cc3ccc4occc4c3)O2)CC1 [DDD01250070]	1.57	82.8	–
C=Cc1cccc(CN2C[C@@H](CN(C)CC)[C@@H](CO)C2)c1 [DDD01250237]	1.27	83.3	–
C[C@@H]1CN(C(=O)C2CCS(=O)(=O)CC2)CC[C@@]1(O)C1CCOCC1 [DDD01250493]	1.67	82.2	–
O=C(CCN1CCCC(CO)(CC2CC2)C1)NCc1cccc(Cl)c1 (stereo not shown) [DDD01250518]	1.83	81.8	–
COc1ccccc1CCN1CCCC(CN(C)Cc2ccc(C)o2)C1 (stereo not shown) [DDD01250738]	1.36	86.1	–
COc1ccnc(CN2CCCC(CCc3ccccc3)C2)c1OC (stereo not shown) [DDD01250826]	1.26	92.5	IC50 [3]: 1.41 µM; Emax [4]: 93%; IC50 [5]: 0.447 µM; Emax [6]: 99.3%
Cn1cc(CN2CCCC(CCc3ccc(F)cc3F)C2)cn1 (stereo not shown) [DDD01251707]	1.69	81	–
Cc1ccccc1CN(CCN(C)C)Cc1ccc(S(C)(=O)=O)cc1 [DDD01251767]	1.52	76.8	–
COc1cccc(OC)c1CN1CC(=O)N(c2ccc(C)cc2)CC1C (stereo not shown) [DDD01252418]	1.26	89.5	IC50 [3]: 3.67 µM; IC50 [5]: 1.8 µM; Emax [6]: 93.6%
Cc1nc(-c2cc(Cl)c3c(c2)CC(CN)O3)c[nH]1 (stereo not shown) [DDD01252814]	2.18	88.7	–
CCC[C@H]1CN(c2nc(CO)cs2)C[C@@H]1NC(=O)C1(COC)CC1 [DDD01253377]	1.81	80.7	–
Cc1cc(S(=O)(=O)NCC2CNCCOC2)c(C)cc1Cl (stereo not shown) [DDD01253448]	1.24	89.3	IC50 [3]: > 4.16 µM; Emax [4]: 24.9%; IC50 [5]: 1.64 µM; Emax [6]: 89%
Cc1cccnc1CC(C)NC1Cc2ccccc2C1 (stereo not shown) [DDD01255733]	1.76	81.8	–
Cc1c(C(=O)N2CCC(N3CCCCC3)CC2)n(C)c2ccc(Cl)cc12 [DDD01255900]	–	–	IC50 (DD2, read-out: CDD P. falciparum Luciferase ABS 11-pt Reconfirmation Dose Response (48hr): IC50 (μM), 11-pt dose response, 48hr): 3.56 µM; IC50 [7]: 1.11 µM; Emax [8]: 93.8%; Emax (DD2, 11-pt dose response, 48hr, read-out: CDD P. falciparum Luciferase ABS 11-pt Reconfirmation Dose Response (48hr): Maximum inhibition (%)): 96.3%; IC50 (DD2, 11-pt dose response, 96hr, read-out: CDD P. falciparum Luciferase ABS 11-pt Reconfirmation Dose Response (96hr): IC50): 1.7 µM; Emax (DD2, 11-pt dose response, 96hr, read-out: CDD P. falciparum Luciferase ABS 11-pt Reconfirmation Dose Response (96hr): Maximum inhibition (%)): 98.9%
c1ccc2sc(N3CCCN(c4ncnc5c4CCNC5)CC3)nc2c1 [DDD01257073]	1.83	84	–
O=C(c1ccc(F)c(Cl)c1)N1C[C@H]2CC[C@@H](C1)N(Cc1ccccc1)C2 [DDD01257805]	1.16	85.8	IC50 [3]: 5.31 µM; Emax [4]: 91.8%; IC50 [5]: 2.39 µM; Emax [6]: 97.8%
Cc1cc(F)ccc1CN1CCC(O)(CN2CCCCC2)C1 (stereo not shown) [DDD01258113]	1.22	83.7	–
CCC1CN(C(=O)c2ccc(Cl)cc2O)CCN1C(C)C (stereo not shown) [DDD01258121]	2.57	80.5	–
CN1CCCC(c2cccc(Cc3ccccc3Cl)n2)C1 (stereo not shown) [DDD01270191]	1.72	80.2	–
CCN1CCCC(CNC(=O)C2(c3cc(C)cc(C)c3)CCC2)C1 (stereo not shown) [DDD01296287]	1.39	–	–
CC(O)CN1CCC(CNCc2ccc(OC(F)(F)F)cc2)CC1 (stereo not shown) [DDD01297562]	1.25	90.4	–
CN1CCCC1CNC(=O)CCCOc1cccc(Br)c1 (stereo not shown) [DDD01297989]	1.4	83.9	–
CCN(CC)C(CNC(=O)c1c(C)noc1C(C)C)c1ccsc1 (stereo not shown) [DDD01298744]	–	–	IC50 [7]: 0.96 µM; Emax [8]: 85.7%
c1cnnc(N2CCCC2CNc2ncnc3sccc23)c1 (stereo not shown) [DDD01299704]	1.61	92.3	–
CN(Cc1ncc(C(C)(C)C)o1)CC1CCCN1c1cccnn1 (stereo not shown) [DDD01301524]	1.81	–	–
